Results reported in patent US10815197B2, “N-sulfonyl benzamides as voltage-gated sodium channel inhibitors” (SHANGHAI HAIYAN PHARMACEUTICAL TECHNOLOGY CO., LTD., priority 2016, dated 2020).

Experiments:
hNav1.7 = biological target: T1, hNav1.7 (Homo sapiens, UniProt Q15858); assay: Manual patch clamp experiment hNav1.7 (CHO-hNav1.7 stable cell line); format: cell-based; details: for inhibition at 0.1 µM: compound at 100 nM, read-out: Inhibition of Nav1.7 100 nM(%); for inhibition at 1 µM: compound at 1000 nM, read-out: Inhibition of Nav1.7 1000 nM(%)
T1 construct: host or cells: CHO
How it was run: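 Whole-cell manual patch clamp on CHO-hNav1.7 or HEK-hNav1.5 cells, extracellular pH 7.3, CsF-based internal. Sodium current elicited by 20 ms steps to −10 mV from either V1/2 holding (with 50 ms −120 mV prepulse) or −120 mV holding, every 10 s; inhibition from current before versus after dosing, IC50 by Hill fit.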

[1] = Metabolism stability assay, human liver microsomes; format: in vitro ADME; details: for half-life at 1 µM: pH 7.4
Procedure: Assay 4: Metabolism Stability Assay 1. […] Buffer A: 1 L solution of 100 mM potassium dihydrogen phosphate containing 1 mM EDTA (Sigma, V900157-100G) was prepared. Buffer B: 1 L solution of 100 mM dipotassium hydrogen phosphate containing 1 mM EDTA was prepared. Buffer C: 700 mL of buffer B was taken out and titrated with buffer A to pH 7.4. 2. […] 2.2 20 μl (20 mg/mL) of liver microsomes (Corning Lot. NO. 4133007) stock solution was added to 513.4 μl of buffer C on wet ice. 0.75 mg/mL liver microsomal solution was obtained. 2.3 1.5 μl of each of the above-mentioned compound to be tested and ketanserin solution was added to 498.5 μl of liver microsomal solution (0.7 5 mg/mL) respectively on wet ice. 1.5 μM mixed solution of compound to be tested and 1.5 μM mixed solution of ketanserin were obtained. 2.4 At the time points 0, 5, 15, 30, 45, and 60 min, 30 μl of the mixed solution of compound to be tested and 30 μl of the mixed solution of ketanserin were dispensed into the reaction plate on wet ice, respectively. 2.5 5 mg reduced coenzyme II (Roche, 10621706001) was weighed and dissolved in 1 mL of buffer C. 6 mM reduced coenzyme II solution was obtained. The reduced coenzyme II solution was dispensed into the reaction plate. 2.6 Imipramine was dissolved to give a 10 mM solution. 10 μl of imipramine solution was added to 100 mL of blank acetonitrile to generate the internal reference. 2.7 At 0 min, 135 μL of iced acetonitrile (Merck (Lot. 1778229518)) containing the internal reference was added to each well and then 15 μL of buffer C was added. 2.8 The reaction plate was placed into a 37° C. water bath incubator for 5 min. In the reaction plate, 15 μL of reduced coenzyme II solution was added to each well to initiate the reaction, and the timing was started. At the time points of 5, 15, 30, 45, and 60 min, 135 μL of iced acetonitrile containing the internal reference was added to each well to terminate the reaction. 2.9 The reaction plate was sealed with an aluminum film, placed on a vibration mixer and shaken at 500 rpm for 5 min. The plate was then centrifuged in a centrifuge at 3750 rp for 15 min. 2.10 The sample was diluted with pure water in accordance with the ratio of 1:1 and detected by LC/MS. Half-life: 0.693/K (the slope by plotting based on the incubation time and logarithm of the concentration value) Clearance ratio: (0.693/half-life)*(1/protein concentration (0.5 mg/mL))*(proportional factor) Wherein, the K value and the proportional factor were calculated by those skilled in the art according to the methods described in the prior art and contained in the instructions of the liver microsome product.

T1 sequence (Q15858 whole entry): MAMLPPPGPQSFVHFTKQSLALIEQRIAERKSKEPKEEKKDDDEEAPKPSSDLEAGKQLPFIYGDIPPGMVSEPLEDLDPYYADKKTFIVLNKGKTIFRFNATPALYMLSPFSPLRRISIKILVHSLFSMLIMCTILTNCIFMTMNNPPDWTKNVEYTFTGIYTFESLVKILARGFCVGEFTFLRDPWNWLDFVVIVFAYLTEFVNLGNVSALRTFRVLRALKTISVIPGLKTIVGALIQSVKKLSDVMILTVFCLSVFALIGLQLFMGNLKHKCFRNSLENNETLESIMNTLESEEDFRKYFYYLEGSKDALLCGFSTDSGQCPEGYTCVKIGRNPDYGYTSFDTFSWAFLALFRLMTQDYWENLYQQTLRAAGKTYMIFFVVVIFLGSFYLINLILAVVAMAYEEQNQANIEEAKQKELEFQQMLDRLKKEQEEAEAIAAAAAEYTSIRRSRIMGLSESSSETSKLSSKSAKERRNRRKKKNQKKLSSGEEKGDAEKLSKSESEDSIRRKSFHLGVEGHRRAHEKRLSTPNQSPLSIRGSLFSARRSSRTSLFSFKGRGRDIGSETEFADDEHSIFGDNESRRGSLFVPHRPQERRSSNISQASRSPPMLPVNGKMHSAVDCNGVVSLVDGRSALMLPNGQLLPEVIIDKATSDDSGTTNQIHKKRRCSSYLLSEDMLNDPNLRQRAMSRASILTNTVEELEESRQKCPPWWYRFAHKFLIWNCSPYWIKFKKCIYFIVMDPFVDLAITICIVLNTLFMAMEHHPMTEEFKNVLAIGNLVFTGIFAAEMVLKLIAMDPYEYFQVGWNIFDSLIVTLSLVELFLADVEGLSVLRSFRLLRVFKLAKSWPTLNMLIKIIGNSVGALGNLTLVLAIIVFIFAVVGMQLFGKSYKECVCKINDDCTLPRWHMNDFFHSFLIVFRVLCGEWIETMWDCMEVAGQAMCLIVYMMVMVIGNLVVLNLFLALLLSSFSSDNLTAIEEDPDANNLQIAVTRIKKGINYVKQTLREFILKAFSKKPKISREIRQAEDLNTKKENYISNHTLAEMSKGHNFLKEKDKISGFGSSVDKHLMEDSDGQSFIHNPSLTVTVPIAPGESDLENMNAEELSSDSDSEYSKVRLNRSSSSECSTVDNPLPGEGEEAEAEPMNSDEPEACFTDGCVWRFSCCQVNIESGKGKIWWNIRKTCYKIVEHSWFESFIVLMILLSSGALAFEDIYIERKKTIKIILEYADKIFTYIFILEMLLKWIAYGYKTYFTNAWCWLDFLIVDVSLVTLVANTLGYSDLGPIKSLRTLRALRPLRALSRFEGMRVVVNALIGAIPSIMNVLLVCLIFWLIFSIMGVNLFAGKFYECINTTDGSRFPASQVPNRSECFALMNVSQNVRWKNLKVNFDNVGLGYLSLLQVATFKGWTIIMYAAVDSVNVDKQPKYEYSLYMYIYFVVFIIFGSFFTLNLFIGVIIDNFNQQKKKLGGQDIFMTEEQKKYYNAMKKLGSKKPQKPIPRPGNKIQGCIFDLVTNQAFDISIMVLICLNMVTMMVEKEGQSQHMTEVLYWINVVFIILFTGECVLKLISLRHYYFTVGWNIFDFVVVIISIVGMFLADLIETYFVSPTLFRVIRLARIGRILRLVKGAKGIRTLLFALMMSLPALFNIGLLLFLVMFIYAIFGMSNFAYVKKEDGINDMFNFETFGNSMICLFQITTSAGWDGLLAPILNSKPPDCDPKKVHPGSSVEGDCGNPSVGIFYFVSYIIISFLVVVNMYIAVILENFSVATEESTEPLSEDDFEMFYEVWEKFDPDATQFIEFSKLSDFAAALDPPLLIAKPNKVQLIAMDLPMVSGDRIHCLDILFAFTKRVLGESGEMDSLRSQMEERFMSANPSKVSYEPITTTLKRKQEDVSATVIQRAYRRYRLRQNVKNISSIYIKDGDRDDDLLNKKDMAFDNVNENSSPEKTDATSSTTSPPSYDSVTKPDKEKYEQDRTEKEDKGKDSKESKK

Row | SMILES | inhibition at 0.1 µM (hNav1.7) [%] | inhibition at 1 µM (hNav1.7) [%] | IC50 (hNav1.7; read-out: Nav1.7(IC50/nM)) [nM] | Clearance [1] [mL/min/kg] | half-life at 1 µM [1] [h] | T1/2(min) [1]
1 | Cc1cc(N2CCN(Cc3cc(F)c(C(=O)NS(=O)(=O)C4CC4)cc3Cl)CC2)ccc1Cl [Compound Z-164] | 89.7 | 102 | 24.6 | 20.12 | 1.44 | –
2 | C[C@@H]1CN(c2ccc(Cl)c(Cl)c2)CCN1Cc1cc(F)c(C(=O)NS(=O)(=O)C2CC2)cc1Cl [Compound Z-172, (R)-5-Chloro-N-(cyclopropylsulfonyl)-4-((4-(3,4-dichlorophenyl)-2-methylpiperazin-1-yl)methyl)-2-fluorobenzamide] | 89.1 | 97.2 | – | 2.20 | 13.1 | –
3 | O=C(NS(=O)(=O)C1CC1)c1cc(Cl)c(CN2CCN(c3ccc(C4CC4)c(Cl)c3)CC2)cc1F [Compound Z-173] | 93.8 | 100 | – | 6.20 | 4.67 | –
4 | Cc1ccc(N2CCN(Cc3cc(F)c(C(=O)NS(=O)(=O)C4CC4)cc3Cl)CC2)cc1Cl [Compound Z-177] | 89.2 | 98 | – | 0.00 | – | ∞

Continued, values first:

Row | inhibition at 0.1 µM (hNav1.7) [%] | inhibition at 1 µM (hNav1.7) [%] | IC50 (hNav1.7; read-out: Nav1.7(IC50/nM)) [nM] | Clearance [1] [mL/min/kg] | half-life at 1 µM [1] [h] | T1/2(min) [1] | SMILES
5 | 89.1 | 98.7 | – | 23.88 | 1.21 | – | CCc1cc(N2CCN(Cc3cc(F)c(C(=O)NS(=O)(=O)C4CC4)cc3Cl)CC2)ccc1Cl [Compound Z-178]
6 | 83.8 | 99.2 | – | 2.74 | – | ∞ | CCc1cc(C(=O)NS(=O)(=O)C2CC2)c(F)cc1CN1CCN(c2ccc(OC(F)(F)F)cc2)CC1 [Compound Z-189, N-(cyclopropylsulfonyl)-5-ethyl-2-fluoro-4-((4-(4-(trifluoromethoxy)phenyl)piperazin-1-yl)methyl)benzamide]
